Measured values taken from patent US20050153870A1, “Medicinal composition for diagnosis, prevention, or therapy of multiple risk factor syndrome” (priority 2002, published 2005).

Tested on: non-insulin dependent type II diabetes patients
Assay: Clinical test II
Assay type: in vivo, human
Details: for Body weight: week 0: 61.4 ± 10.21, in kg; for Serum neutral fat: week 0: 199.6 ± 88.29; for number of patients, Feeling of weariness Absent: before medication 0 of 25; for number of patients, Large amount of urine excretion Absent: before medication 0 of 30; for number of patients, Feeling of fatigue Absent: before medication 1 of 15; for number of patients, Throat dry Absent: before medication 1 of 30; for number of patients, Pain in the calf of leg Absent: before medication 4 of 16; for number of patients, Pain in the calf of leg Present: before medication 12 of 16; for number of patients, Feeling of fatigue Present: before medication 14 of 15; for number of patients, Feeling of weariness Present: before medication 25 of 25; for number of patients, Throat dry Present: before medication 29 of 30; for number of patients, Large amount of urine excretion Present: before medication 30 of 30
Description: On the other hand, Clinical test II was performed in a group of 79 participants from non-insulin dependent diabetic patients.
79 non-insulin dependent type II diabetes patients whose blood sugar is well-controlled under dietary therapy (all were mongoloid Japanese) participated in Clinical test II. They were forbidden to use sulfonyl urea and biguanide agent which is a therapeutic agent for type II diabetes, and a fibrate series medicament, nicotinic acid, and probucol which is a serum fat decreasing agent; however use of an antihypertensive agent is not particularly prohibited. They participated on a voluntary basis after they signed informed consent for clinical test participation, which was proposed by a medical institution based on the Helsinki declaration. The participants consisted of 26 males and 53 females. An average age at the sign-up time was 58±9.9 years old (average value±standard deviation), ranging from 37 to 81 years old. The body weight of patients was divided by standard body weight obtained from the standard body-weight table issued by Meiji life Insurance Company. This index was 1.24±0.154 (average value±standard deviation) at the sign-up time, meaning that there are many obese persons. After 12 weeks, the body weight index decreased to 1.18±0.137(average value±standard deviation).
The number of patients having normal blood pressure was 58 (of them, 31 patients were taking an antihypertensive agent).

[1] = 30 cases with diabetic complications

COc1c(Cl)c(C)c(C=O)c(O)c1C/C=C(C)/C=C/[C@@]1(C)[C@H](C)CCC(=O)[C@@H]1C [4-O-methylascochlorin]
Fasting blood sugar, change vs week 0 (6 mg/kg, week 4): −9.1% (n = 69)
Serum neutral fat, change vs week 0 (6 mg/kg, week 4): −15.2% (n = 62)
Total serum cholesterol, change vs week 0 (6 mg/kg, week 4): −14.3% (n = 60)
Body weight (6 mg/kg, week 4): 61.4 ± 9.63
Fasting blood sugar (6 mg/kg, week 4, week 0: 162 ± 50.68): 146.1 ± 41.06
Serum neutral fat (6 mg/kg, week 4): 173.5 ± 71.25
Total serum cholesterol (6 mg/kg, week 4, week 0: 265.3 ± 69.75): 238.7 ± 51.33
Fasting blood sugar, change vs week 0 (6 mg/kg, week 8): −8.9% (n = 74)
Serum neutral fat, change vs week 0 (6 mg/kg, week 8): −22.7% (n = 59)
Total serum cholesterol, change vs week 0 (6 mg/kg, week 8): −18.6% (n = 61)
Body weight (6 mg/kg, week 8): 60.7 ± 8.88
Fasting blood sugar (6 mg/kg, week 8, week 0: 162 ± 50.68): 147.9 ± 46.94
Serum neutral fat (6 mg/kg, week 8): 162.3 ± 65.89
Total serum cholesterol (6 mg/kg, week 8, week 0: 265.3 ± 69.75): 228.0 ± 43.65
Fasting blood sugar, change vs week 0 (6 mg/kg, week 12): −10.8% (n = 71)
Serum neutral fat, change vs week 0 (6 mg/kg, week 12): −21.8% (n = 69)
Total serum cholesterol, change vs week 0 (6 mg/kg, week 12): −19.7% (n = 69)
Body weight (6 mg/kg, week 12): 60.3 ± 9.07
Fasting blood sugar (6 mg/kg, week 12, week 0: 162 ± 50.68): 142.2 ± 44.03
Serum neutral fat (6 mg/kg, week 12): 158.8 ± 73.28
Total serum cholesterol (6 mg/kg, week 12, week 0: 265.3 ± 69.75): 220.04 ± 46.17
number of patients, Feeling of weariness Absent (4th week): 10
number of patients, Large amount of urine excretion Absent (4th week): 16
number of patients, Feeling of fatigue Absent (4th week): 5
number of patients, Throat dry Absent (4th week): 16
number of patients, Pain in the calf of leg Absent (4th week): 9
number of patients, Pain in the calf of leg Present (4th week): 7
number of patients, Feeling of fatigue Present (4th week): 10
number of patients, Feeling of weariness Present (4th week): 15
number of patients, Throat dry Present (4th week): 14
number of patients, Large amount of urine excretion Present (4th week): 14
symptoms associated with diabetic nephropathy such as throat dry and excessive urination (5 excluded cases of type II diabetic patients having 10-20 year's disease history): disappeared from all patients
number of patients, Feeling of weariness Absent (8th week): 19
number of patients, Large amount of urine excretion Absent (8th week): 22
number of patients, Feeling of fatigue Absent (8th week): 13
number of patients, Throat dry Absent (8th week): 23
number of patients, Pain in the calf of leg Absent (8th week): 10
number of patients, Pain in the calf of leg Present (8th week): 6
number of patients, Feeling of fatigue Present (8th week): 2
number of patients, Feeling of weariness Present (8th week): 6
number of patients, Throat dry Present (8th week): 7
number of patients, Large amount of urine excretion Present (8th week): 8
decrease of body weight compared to before medication (12-week medication): 0.9 kg
number of patients, Feeling of weariness Absent (12th week): 24
number of patients, Large amount of urine excretion Absent (12th week): 29
number of patients, Feeling of fatigue Absent (12th week): 15
number of patients, Throat dry Absent (12th week): 28
number of patients, Pain in the calf of leg Absent (12th week): 14
number of patients, Pain in the calf of leg Present (12th week): 2
number of patients, Feeling of fatigue Present (12th week): 0
number of patients, Feeling of weariness Present (12th week): 1
number of patients, Throat dry Present (12th week): 2
number of patients, Large amount of urine excretion Present (12th week): 1
feeling of fatigue, feeling of weariness, pain in the calf of leg (diabetic neuropathy) [1]: improved these symptoms with the passage of time
throat dry and excessive urination (symptoms of diabetic nephropathy) [1]: significantly improved
abnormality in the serum biological test, hematocyte test, and urine test (79 patients, 12-week medication): did not bring any abnormality
side effect (79 patients, 12-week medication, 6 mg/kg, transient, disappeared within a week): Two cases of light eruption
Fasting blood sugar, change vs before medication (High blood sugar group FBS > 130 mg/dl, 4th week): −11.3% (n = 45)
Fasting blood sugar (High blood sugar group FBS > 130 mg/dl, 4th week, before medication 187.6 ± 40.39): 167.3 ± 34.50 mg/dL
Fasting blood sugar, change vs before medication (High blood sugar group FBS > 130 mg/dl, 8th week): −11.8% (n = 49)
Fasting blood sugar (High blood sugar group FBS > 130 mg/dl, 8th week, before medication 187.6 ± 40.39): 167.8 ± 44.82 mg/dL
Fasting blood sugar, change vs before medication (High blood sugar group FBS > 130 mg/dl, 12th week): −13.8% (n = 46)
Fasting blood sugar (High blood sugar group FBS > 130 mg/dl, 12th week, before medication 187.6 ± 40.39): 161.7 ± 41.79 mg/dL
Total serum cholesterol, change vs before medication (High cholesterol group 300-200 mg/dl, 4th week): −11.8% (n = 26)
Total serum cholesterol (High cholesterol group 300-200 mg/dl, 4th week, before medication 267.6 ± 23.66): 240.8 ± 38.92 mg/dL
Total serum cholesterol, change vs before medication (High cholesterol group 300-200 mg/dl, 8th week): −13.9% (n = 27)
Total serum cholesterol (High cholesterol group 300-200 mg/dl, 8th week, before medication 267.6 ± 23.66): 232.4 ± 36.01 mg/dL
Total serum cholesterol, change vs before medication (High cholesterol group 300-200 mg/dl, 12th week): −17.0% (n = 30)
Total serum cholesterol (High cholesterol group 300-200 mg/dl, 12th week, before medication 267.6 ± 23.66): 227.2 ± 45.36 mg/dL
Fasting blood sugar, change vs before medication (Normal blood sugar group FBS < 130 mg/dl, 4th week): ns (n = 24)
Fasting blood sugar (Normal blood sugar group FBS < 130 mg/dl, 4th week, before medication 108.8 ± 15.10): 106.4 ± 13.48 mg/dL
Fasting blood sugar, change vs before medication (Normal blood sugar group FBS < 130 mg/dl, 8th week): ns (n = 25)
